Laboratory results reported in paper PMC9598656, “In Vitro Activity of Robenidine Analogues NCL259 and NCL265 against Gram-Negative Pathogens” (Antibiotics, 2022).

Key:
A. baumannii ATCC 12457 = assay: Checkerboard assay with PMB; assay type: cell-based, Acinetobacter baumannii; settings: for MIC, Combination: NCL259 or NCL265 with PMB; for Combination Effect / FICI: with PMB
Method: (§1) MICs of NCL259 or NCL265 in the presence of the efflux pump inhibitor, PAβN were determined using a checkerboard assay. […] Briefly, a two-fold serial dilution of each antimicrobial solution was prepared in its appropriate solvent (e.g., DMSO for robenidine analogues and Milli-Q water for PAβN), and 1 μL of each dilution was added from wells 12 to 3 (12.8–0.25 μg/mL for robenidine analogues, and 32–2 μg/mL for PAβN). Thereafter, 89 μL of LB broth was added to each well followed by the addition of 10 μL of bacterial suspension (1–5 × 10^6 CFU/mL) to each well. In this manner, the final concentration of DMSO in each well was 1%. The plate was subsequently incubated at 37 °C for 24 h. The resazurin assay was used for assessment of drug susceptibility of NCL259 and NCL265 (Supplementary Table S1–S6). The same method was also used to test the MICs of NCL259 or NCL265 in the presence of PMB against a range of Gram-negative reference strains (E. coli ATCC 25922, E. coli ATCC 10763, P. aeruginosa PAO1, P. aeruginosa ATCC 27853, A. baumannii ATCC 12457, A. baumannii ATCC 19606, K. pneumoniae ATCC 4352 and K. pneumoniae ATCC 33495). Stock solutions were prepared prior to use (25.6–0.25 mg/mL for robenidine analogues; 12.8–0.25 mg/mL for PMB). The interaction of two antibiotics was calculated as the fractional inhibitory concentration index (FICI) using the following formula:(1) FICI=MICA in combination/MICA alone+MICB in combination/MICB alone where A is NCL259 or NCL265 and B is PAβN or PMB. According to FICI calculations, the interaction between two compounds were interpreted as follows: synergistic (FICI ≤ 0.5); additive or partially synergistic (0.5 < FICI ≤ 1); indifferent (1 < FICI ≤ 4); and antagonistic (FICI > 4), as described previously. The dose reduction index (DRI) was used to describe the difference between the effective doses of NCL259 or NCL265 in combination with PMB or PAβN in comparison to their individual doses, using the following formula:(2) DRI=MICA alone/MICA in combination
(§2) Evaluation of DRI is important clinically because it can allow the dose of a potentially toxic drug to be lowered in combination with another compound without reducing the drug’s efficacy. A DRI higher than 1 is viewed as beneficial.

A. baumannii ATCC 19606 = assay: Checkerboard assay with PMB; assay type: cell-based, Acinetobacter baumannii; settings: for MIC, Combination: NCL259 or NCL265 with PMB; for Combination Effect / FICI: with PMB
Method: as §1, §2

K. oxytoca 13GNB–582 [1] = assay: MIC, broth micro-dilution; assay type: cell-based; settings: Klebsiella oxytoca, read-out: MIC, Single Drug
Method: (§3) MICs for NCL259 and NCL265 (serial two-fold dilutions commencing at 256 µg/mL) were determined (in duplicate) in round bottom 96–well microtitre trays (Sarstedt 82.1582.001), using the broth micro-dilution method recommended by the Clinical and Laboratory Standards Institute (CLSI). We have shown previously that robenidine can chelate calcium ions from cation-adjusted Mueller-Hinton broth, which causes the loss of activity of robenidine. Therefore, LB broth was used in this study. Additionally, considering the low solubility of robenidine and its analogues in aqueous solutions, two-fold serial dilutions of stock solutions of these compounds were prepared in 100% DMSO [21]. The MIC for ampicillin against each isolate was determined for each test to serve as an internal quality control. The MICs of isolates were determined by visual reading and using an EnSpire Multimode Plate Reader 2300 at A600nm.
as §1

K. pneumoniae 13GNB–429 [2] = assay: MIC, broth micro-dilution; assay type: cell-based; settings: Klebsiella pneumoniae, read-out: MIC, Single Drug
Method: as §3, §1

K. pneumoniae 13GNB–550 [3] = assay: MIC, broth micro-dilution; assay type: cell-based; settings: Klebsiella pneumoniae, read-out: MIC, Single Drug
Method: as §3, §1

K. pneumoniae 13GNB–429 [4] = assay: Checkerboard assay with PAβN; assay type: cell-based, Klebsiella pneumoniae; settings: for concentration at the marked interaction: resazurin
Method: as §1, §2

K. pneumoniae 13GNB–550 [5] = assay: Checkerboard assay with PAβN; assay type: cell-based, Klebsiella pneumoniae; settings: for concentration at the marked interaction: resazurin
Method: as §1, §2

K. oxytoca 13GNB–582 [6] = assay: Checkerboard assay with PAβN; assay type: cell-based; settings: for concentration at the marked interaction: resazurin
Method: as §1, §2

E. coli ATCC 25922 = settings: cited from earlier work; for reduction in CFU (bactericidal): E. coli ATCC 25922, after 30 min treatment; for reduction of colony forming units: within 20 min at the MIC
[7] = K. pneumoniae 13GNB–429, PAβN + NCL259
[8] = Table S1, NCL259 + PAβN, replicate 1
[9] = Table S1, NCL259 + PAβN, replicate 2
[10] = K. pneumoniae 13GNB–550, PAβN + NCL259
[11] = Table S2, NCL259 + PAβN, replicate 2
[12] = K. oxytoca 13GNB–582, PAβN + NCL259
[13] = Table S3, NCL259 + PAβN, replicate 1
[14] = Table S3, NCL259 + PAβN, replicate 2
[15] = K. pneumoniae 13GNB–429, PAβN + NCL265
[16] = Table S4, NCL265 + PAβN, replicate 1
[17] = Table S4, NCL265 + PAβN, replicate 2
[18] = K. pneumoniae 13GNB–550, PAβN + NCL265
[19] = Table S5, NCL265 + PAβN, replicate 1
[20] = Table S5, NCL265 + PAβN, replicate 2
[21] = K. oxytoca 13GNB–582, PAβN + NCL265
[22] = Table S6, NCL265 + PAβN, replicate 1
[23] = Table S6, NCL265 + PAβN, replicate 2

## [H]/N=C(\N)NN=C(CC1CCCCC1)c1ccc(Cl)cc1 [NCL259, (E)-2-(1-(4-chlorophenyl)-2-cyclohexylethylidene)hydrazine-1-carboximidamide]
A. baumannii ATCC 12457
  MIC, Combination: 1 mg/L
  Combination Effect: Additivity (additive or partially synergistic, 0.5 < FICI ≤ 1)
  FICI: 0.625
A. baumannii ATCC 12457; PMB + NCL259
  Dose Reduction Index (DRI) PMB:NCL259: 8
A. baumannii ATCC 19606
  MIC, Combination: 1 mg/L
  Combination Effect: Additivity (additive or partially synergistic, 0.5 < FICI ≤ 1)
  FICI: 0.625
A. baumannii ATCC 19606; PMB + NCL259
  Dose Reduction Index (DRI) PMB:NCL259: 8
K. oxytoca 13GNB–582 [1]
  MIC: > 256 mg/L
K. pneumoniae 13GNB–429 [2]
  MIC: > 256 mg/L
K. pneumoniae 13GNB–550 [3]
  MIC: > 256 mg/L
K. pneumoniae 13GNB–429 [4]; K. pneumoniae 13GNB–429
  DRI PAβN:NCL259: 16
K. pneumoniae 13GNB–429 [4]; [7]
  Combination Effect: Synergism (synergistic, FICI ≤ 0.5)
  MIC, Combination: 16 mg/L
K. pneumoniae 13GNB–429 [4]; [8]
  interaction: synergistic (synergistic (FICI ≤ 0.5))
  concentration at the marked interaction: 16 µg/mL
K. pneumoniae 13GNB–429 [4]; [9]
  interaction: synergistic (synergistic (FICI ≤ 0.5))
  concentration at the marked interaction: 16 µg/mL
K. pneumoniae 13GNB–550 [5]; K. pneumoniae 13GNB–550
  DRI PAβN:NCL259: 32
K. pneumoniae 13GNB–550 [5]; [10]
  Combination Effect: Additivity (additive or partially synergistic, 0.5 < FICI ≤ 1)
  FICI: 0.531
  MIC, Combination: 8 mg/L
K. pneumoniae 13GNB–550 [5]; [11]
  interaction: synergistic (synergistic (FICI ≤ 0.5))
  concentration at the marked interaction: 16 µg/mL
K. pneumoniae 13GNB–550 [5]; Table S2, NCL259 + PAβN, replicate 1
  concentration at the marked interaction: 16 µg/mL
K. oxytoca 13GNB–582 [6]; K. oxytoca 13GNB–582
  DRI PAβN:NCL259: 32
K. oxytoca 13GNB–582 [6]; [12]
  Combination Effect: Synergism (synergistic, FICI ≤ 0.5)
  FICI: 0.281
  MIC, Combination: 8 mg/L
K. oxytoca 13GNB–582 [6]; [13]
  interaction: synergistic (synergistic (FICI ≤ 0.5))
  concentration at the marked interaction: 8 µg/mL
K. oxytoca 13GNB–582 [6]; [14]
  interaction: synergistic (synergistic (FICI ≤ 0.5))
  concentration at the marked interaction: 8 µg/mL
E. coli ATCC 25922
  reduction in CFU (bactericidal): > 5 log 10
  reduction of colony forming units: 100%

## [H]/N=C(\N)NN=C(CCCCCC)c1ccc(Cl)cc1 [NCL265, (E)-2-(1-(4-chlorophenyl)heptylidene)hydrazine-1-carboximidamide]
A. baumannii ATCC 12457
  MIC, Combination: 0.5 mg/L
  Combination Effect: Additivity (additive or partially synergistic, 0.5 < FICI ≤ 1)
  FICI: 0.75
A. baumannii ATCC 12457; PMB + NCL265
  Dose Reduction Index (DRI) PMB:NCL265: 4
A. baumannii ATCC 19606
  MIC, Combination: 0.5 mg/L
  Combination Effect: Additivity (additive or partially synergistic, 0.5 < FICI ≤ 1)
  FICI: 0.75
A. baumannii ATCC 19606; PMB + NCL265
  Dose Reduction Index (DRI) PMB:NCL265: 4
K. oxytoca 13GNB–582 [1]
  MIC: > 256 mg/L
K. pneumoniae 13GNB–429 [2]
  MIC: > 256 mg/L
K. pneumoniae 13GNB–550 [3]
  MIC: > 256 mg/L
K. pneumoniae 13GNB–429 [4]; K. pneumoniae 13GNB–429
  DRI PAβN:NCL265: 64
K. pneumoniae 13GNB–429 [4]; [15]
  Combination Effect: Additivity (additive or partially synergistic, 0.5 < FICI ≤ 1)
  FICI: 0.516
  MIC, Combination: 4 mg/L
K. pneumoniae 13GNB–429 [4]; [16]
  interaction: synergistic (synergistic (FICI ≤ 0.5))
  concentration at the marked interaction: 8 µg/mL
K. pneumoniae 13GNB–429 [4]; [17]
  interaction: synergistic (synergistic (FICI ≤ 0.5))
  concentration at the marked interaction: 8 µg/mL
K. pneumoniae 13GNB–550 [5]; K. pneumoniae 13GNB–550
  DRI PAβN:NCL265: 64
K. pneumoniae 13GNB–550 [5]; [18]
  Combination Effect: Additivity (additive or partially synergistic, 0.5 < FICI ≤ 1)
  FICI: 0.516
  MIC, Combination: 4 mg/L
K. pneumoniae 13GNB–550 [5]; [19]
  interaction: synergistic (synergistic (FICI ≤ 0.5))
  concentration at the marked interaction: 8 µg/mL
K. pneumoniae 13GNB–550 [5]; [20]
  interaction: synergistic (synergistic (FICI ≤ 0.5))
  concentration at the marked interaction: 8 µg/mL
K. oxytoca 13GNB–582 [6]; K. oxytoca 13GNB–582
  DRI PAβN:NCL265: 128
K. oxytoca 13GNB–582 [6]; [21]
  Combination Effect: Additivity (additive or partially synergistic, 0.5 < FICI ≤ 1)
  FICI: 0.508
  MIC, Combination: 2 mg/L
K. oxytoca 13GNB–582 [6]; [22]
  interaction: synergistic (synergistic (FICI ≤ 0.5))
  concentration at the marked interaction: 4 µg/mL
K. oxytoca 13GNB–582 [6]; [23]
  interaction: synergistic (synergistic (FICI ≤ 0.5))
  concentration at the marked interaction: 8 µg/mL
E. coli ATCC 25922
  reduction in CFU (bactericidal): > 5 log 10
  reduction of colony forming units: 100%
